6 compounds from patent US4337252A, “1-Phenyl-4-morpholino-1-buten-3-01 derivatives, compositions and use” (Univablot, priority 1980, dated 1982) can be followed below.

The nature of data set [1]: Toxicity: LD50 in mice by the intraperitoneal route (log-probits method of Miller and Tainter). The settings on record: mouse, in vivo. As to the method:
The LD50 of the products was measured in mice by the intraperitoneal route according to the "log-probits" method of Miller and Tainter (Proc. Soc. Exptl. Biol. Med. 1944; 57, 261-264).

The test system of data set [2] is reserpine-induced blepharospasm. The data set is described as follows: Reserpine antagonism (blepharospasm). Format: in vivo, Male, Swiss strain mice. The settings on record: mice, IP, 1/10 of LD50, 30 min before reserpine 5 mg/kg IP; class symbols. As to the method: 3. Reserpine antagonism (blepharospasm) (Chen G., and Bohner B., (1961) J. Pharmacol. Exptl. Therap. 131, 179).
Reserpine administered to mice in a dosage of 5 mg/kg intraperitoneally subsequently causes the eyelids to drop more or less completely in the majority of the animals. The administration of certain products inhibits the blepharospasm produced by reserpine.
Male, Swiss strain mice are distributed into groups of 10 and each experiment comprises at least 3 groups:
a control group that receives only the solvent and reserpine
a group treated with a reference product: we chose imipramine
a treated group that receives the product being tested in a dosage of 1/10 of the LD50.
The products being tested are administered intraperitoneally 30 minutes before the intraperitoneal injection of reserpine in a dosage of 5 mg/kg, so as to study their activity as a function of time.
The degree of ptosis for each eye and for each animal is observed every 30 minutes for 4 to 5 hours, according to RUBIN's scoring system (RUBIN et al., J. Pharm. Exp. Therap. 1957, 120, 125-136). The activity of the product is determined by comparing the result obtained with the treated control group. The inhibition of blepharospasm is recorded from 0 to +++.

In general, LD50 refers to the dose expected to kill half of the subjects tested. Read a high LD50 as lower toxicity. In data set [1] (ip), `OC(C=Cc1ccc(F)cc1)CN1CCOCC1` (stereo not drawn) [Example 3] had an LD50 of 800 mg/kg. The “Blepharospasm (inhibition of reserpine-induced blepharospasm)” value in data set [2] was “++ (inhibition 26-45%)”.

The compound `Oc1ccc(C=CC(O)CN2CCOCC2)cc1` (stereo not drawn) [Example 4] came in with an LD50 in data set [1] (ip) of 650 mg/kg. Besides, in data set [2], the “Blepharospasm (inhibition of reserpine-induced blepharospasm)” value was “++ (inhibition 26-45%)”.

On to `OC(C=Cc1ccc(Cl)cc1)CN1CCOCC1` (stereo not drawn) [Example 2], for which the 50% lethal dose (LD50) in data set [1] (ip) came to 400 mg/kg. Also, the “Blepharospasm (inhibition of reserpine-induced blepharospasm)” value in data set [2] is “+++ (inhibition >45%)”.

In data set [1] (mice, IP), `COc1ccc(C=CC(O)CN2CCOCC2)cc1` (stereo not drawn) [Example 1, 1-(p-methoxyphenyl)-4-morpholino-1-buten-3-ol] displayed an LD50 of 500 mg/kg. Besides, the “Blepharospasm (inhibition of reserpine-induced blepharospasm)” value in data set [2] was “+++ (inhibition >45%)”.

Regarding `C#CCOc1ccc(C=CC(O)CN2CCOCC2)cc1` (stereo not drawn) [Example 5], the LD50 in data set [1] (ip) amounted to 400 mg/kg. The “Blepharospasm (inhibition of reserpine-induced blepharospasm)” value in data set [2] is on record as “++ (inhibition 26-45%)”.

In turn, `C=CCOc1ccc(C=CC(O)CN2CCOCC2)cc1` (stereo not drawn) [Example 6] gave an LD50 in data set [1] (ip) of 300 mg/kg. Moreover, the “Blepharospasm (inhibition of reserpine-induced blepharospasm)” value in data set [2] was “++ (inhibition 26-45%)”.
